What all share (assay type): functional
The test system of test [1] is Candida albicans. The test can be described thus: Antifungal activity against Candida albicans assessed as reduction in fungal cell growth incubated for 48 hrs by broth microdilution method. For orientation: Dilution methods test growth across graded concentrations, often in twofold steps.
Test [2] deals with Aspergillus niger. The test can be described thus: Antifungal activity against Aspergillus niger assessed as reduction in fungal cell growth incubated for 48 hrs by broth microdilution method.
Test [3] has as its system Nakaseomyces glabratus. The experiment in a line: Antifungal activity against Candida glabrata NCIM 3236 assessed as reduction in fungal cell growth incubated for 24 hrs by broth microdilution method. Particulars: NCIM 3236, 24 h.
Test [4] relates to Candida tropicalis. The experiment in a line: Antifungal activity against Candida tropicalis NCIM 3110 assessed as reduction in fungal cell growth incubated for 48 hrs by broth microdilution method. The settings on record: NCIM 3110, 48 h.
Test [5] relates to Nakaseomyces glabratus. The test can be described thus: Potency index, ratio for MIC of fluconazole to MIC of compound for antifungal activity against Candida glabrata NCIM 3236 assessed as reduction in fungal cell growth incubated for 24 hrs by broth microdilution method.
Test [6] has as its system Candida albicans. The test can be described thus: Antifungal activity against Candida albicans MTCC 227 assessed as reduction in fungal cell growth incubated for 24 hrs by broth microdilution method. Particulars: MTCC 227, 24 h.
In test [7] the test system is Candida tropicalis. The test can be described thus: Potency index, ratio for MIC of fluconazole to MIC of compound for Antifungal activity against Candida tropicalis NCIM 3110 assessed as reduction in fungal cell growth incubated for 24 hrs by broth microdilution method.
Test [8] has as its system Aspergillus fumigatus. The experiment in a line: Antifungal activity against Aspergillus fumigatus.
For test [9], the system named is Aspergillus flavus. The experiment in a line: Antifungal activity against Aspergillus flavus.
In test [10] the test system is Aspergillus flavus. The experiment in a line: Antifungal activity against Aspergillus flavus NCIM 524 assessed as reduction in fungal cell growth incubated for 3 to 4 days by disk diffusion method. Background: A growth-free zone around the sample is the usual read-out of agar diffusion tests.
The test system of the next test is Talaromyces marneffei. The test can be described thus: Antifungal activity against Penicillium marneffei assessed as reduction in fungal cell growth incubated for 3 to 4 days by disk diffusion method.
Test [11] relates to Trichophyton mentagrophytes. The test can be described thus: Antifungal activity against Trichophyton mentagrophytes assessed as reduction in fungal cell growth incubated for 3 to 4 days by disk diffusion method.
Test [12] deals with Aspergillus fumigatus. The test can be described thus: Antifungal activity against Aspergillus fumigatus NCIM 902 assessed as reduction in fungal cell growth incubated for 3 to 4 days by disk diffusion method.
In test [13] the test system is Nakaseomyces glabratus. The experiment in a line: Antifungal activity against Candida glabrata assessed as reduction in fungal cell growth incubated for 24 hrs by broth microdilution method.
In test [14] the test system is Candida albicans. The test can be described thus: Antifungal activity against Candida albicans assessed as reduction in fungal cell growth incubated for 24 hrs by broth microdilution method.
Test [15] has as its system Pichia kudriavzevii. The experiment in a line: Antifungal activity against Candida krusei assessed as reduction in fungal cell growth incubated for 24 hrs by broth microdilution method.
For test [16], the system named is Candida tropicalis. The test can be described thus: Antifungal activity against Candida tropicalis assessed as reduction in fungal cell growth incubated for 24 hrs by broth microdilution method.
The subject of test [17] is Candida tropicalis. The experiment in a line: Antifungal activity against Candida tropicalis by broth microdilution method.
Test [18] relates to Nakaseomyces glabratus. The test can be described thus: Antifungal activity against Candida glabrata ATCC 36583 by broth microdilution method.
Test [19] deals with Candida albicans. The test can be described thus: Antifungal activity against Candida albicans.
Test [20] has as its system Aspergillus fumigatus. The test can be described thus: Antifungal activity against Aspergillus fumigatus assessed as inhibition zone at 1 ug/ml incubated for 24 to 72 hrs by disk diffusion method. Particulars: read-out: IZ.
In test [21] the test system is Aspergillus flavus. The experiment in a line: Antifungal activity against Aspergillus flavus assessed as inhibition zone at 1 ug/ml incubated for 24 to 72 hrs by disk diffusion method. The settings on record: read-out: IZ.
For another test, the system named is Trichoderma harzianum. The experiment in a line: Antifungal activity against Trichoderma harzianum assessed as inhibition zone at 1 ug/ml incubated for 24 to 72 hrs by disk diffusion method. The settings on record: read-out: IZ.
For test [22], the system named is Aspergillus niger. The experiment in a line: Antifungal activity against Aspergillus niger assessed as inhibition zone at 1 ug/ml incubated for 24 to 72 hrs by disk diffusion method. Particulars: read-out: IZ.
The subject of test [23] is Candida albicans. The test can be described thus: Antifungal activity against Candida albicans MTCC183 assessed as reduction in fungal cell growth incubated for 24 to 48 hrs.
Test [24] concerns Aspergillus niger. The experiment in a line: Antifungal activity against Aspergillus niger MTCC281 assessed as reduction in fungal cell growth incubated for 24 to 48 hrs.
The test system of another test is Candida parapsilosis. The test can be described thus: Antifungal activity against Candida parapsilosis ATCC 22019 assessed as reduction in fungal cell growth incubated for 48 hrs by broth microdilution method. Particulars: Lodderomyces parapsilosis, ATCC 22019, 48 h.
Test [25] relates to Aspergillus niger. The test can be described thus: Antifungal activity against Aspergillus niger assessed as reduction in fungal cell growth incubated for 72 hrs by broth microdilution method.
The test system of test [26] is Pichia kudriavzevii. The experiment in a line: Antifungal activity against Candida krusei assessed as reduction in fungal cell growth incubated for 48 hrs by broth microdilution method.
For test [27], the system named is Nakaseomyces glabratus. The test can be described thus: Antifungal activity against Candida glabrata assessed as reduction in fungal cell growth incubated for 48 hrs by broth microdilution method.
Test [28] has as its system Candida tropicalis. The test can be described thus: Antifungal activity against Candida tropicalis assessed as reduction in fungal cell growth incubated for 48 hrs by broth microdilution method.
The next test concerns Cryptococcus neoformans. The test can be described thus: Antifungal activity against Cryptococcus neoformans LA314 assessed as reduction in fungal cell growth incubated for 48 hrs by broth microdilution method. The settings on record: LA314, 48 h.

Converted amounts (≈) assume the structure as drawn.

Broadly, the MIC is the smallest concentration in the dilution series that meets the test's criterion for growth inhibition. As for `S=c1[nH]c2c(c3nnnn13)C(c1ccc(Cl)cc1)c1ccc3ccccc3c1O2` (stereo not drawn), the MIC in the test with Candida albicans [1] and in the test on Aspergillus niger [2] was 50 to 400 µg/mL (≈ 120 to 957 µM) each time.

As to `Cc1cccc2c(=O)c(OCc3nnn[nH]3)c(-c3ccc(F)cc3)oc12`, the MIC with Nakaseomyces glabratus [3], with Candida tropicalis [4] and in the test with Candida albicans [6] was 12.5 to 50 µg/mL (≈ 35.5 to 142 µM) each time. The Ratio with Nakaseomyces glabratus [5] and in the test with Candida tropicalis [7] was 8 - 64 throughout.

`CC[C@H]1O[C@@H](/C(C)=C/[C@H](C)/C=C/[C@@H]2[C@@H](C)[C@@H]2/C=C/[C@@H]2O[C@H](Cc3nn[nH]n3)C[C@H](N(C)C)[C@H]2O)CC=C1C`: the MIC against Aspergillus fumigatus [8] and against Aspergillus flavus [9] was 1.5 µg/mL (≈ 2.85 µM) in each case.

As for `CCn1nnnc1SCCCSc1nnnn1-c1ccccc1`, the MIC (in the test on Aspergillus flavus [10]; in the test with Talaromyces marneffei; in test [11]; in the test with Aspergillus fumigatus [12]) was 6.25 to 50 µg/mL (≈ 17.9 to 143 µM) each time.

Turning to `Fc1cc2[nH]c(SCc3ccc(-c4ccccc4-c4nnnn4C(c4ccccc4)(c4ccccc4)c4ccccc4)cc3)nc2cc1-n1cncn1`, the MIC in the test with Nakaseomyces glabratus [13], in the test on Candida albicans [14], in the test on Pichia kudriavzevii [15] and in the test with Candida tropicalis [16] was 4 to 8 µg/mL (≈ 5.62 to 11.2 µM) in each case.

With `COc1ccc(C2c3ccc4ccccc4c3Oc3[nH]c(=S)n4nnnc4c32)cc1` (stereo not drawn), the minimal inhibitory concentration (MIC) in the test on Candida albicans [1] and in the test with Aspergillus niger [2] was 50 to 400 µg/mL (≈ 121 to 967 µM) each time.

On to `Cn1nnnc1SCC(=O)Nc1ccc(-c2nc3cc(Cl)c(Cl)cc3n2C)cc1`, for which the minimal inhibitory concentration (MIC) against Candida tropicalis [17], against Nakaseomyces glabratus [18] and in the test on Candida albicans [19] was 25 to 50 µg/mL (≈ 55.8 to 112 µM) each time.

Take `O=c1c(OCc2nnn[nH]2)c(-c2ccc(F)cc2)oc2ccc(Cl)cc12`: the MIC with Nakaseomyces glabratus [3] fell in the range of 12.5 to 50 µg/mL (≈ 33.5 to 134 µM); with Candida tropicalis [4], 12.5 to 50 µg/mL (≈ 33.5 to 134 µM); in the test on Candida albicans [6], 12.5 to 25 µg/mL (≈ 33.5 to 67.1 µM). The Ratio in the test on Nakaseomyces glabratus [5] and in the test with Candida tropicalis [7] was 16 - 64 each time.

As for `Fc1cc2nc(SCc3ccc(-c4ccccc4-c4nnnn4C(c4ccccc4)(c4ccccc4)c4ccccc4)cc3)[nH]c2cc1Oc1ccc(Cl)cc1`, the MIC with Nakaseomyces glabratus [13], in the test on Candida albicans [14], in the test with Pichia kudriavzevii [15] and with Candida tropicalis [16] was 16 µg/mL (≈ 20.7 µM) throughout.

With `N#Cc1c(-c2ccco2)nc2sc3c4nnnn4cnc3n2c1=O`, the zone of inhibition at 1 µg/mL with Aspergillus fumigatus [20], in the test on Aspergillus flavus [21], in the test on Trichoderma harzianum and with Aspergillus niger [22] was 1.8 to 2.5 mm each time.

Turning to `Cc1ccc2oc(-c3ccc(F)cc3)c(OCc3nnn[nH]3)c(=O)c2c1`, the MIC with Nakaseomyces glabratus [3], with Candida tropicalis [4] and in the test on Candida albicans [6] was 12.5 to 50 µg/mL (≈ 35.5 to 142 µM) in each case. Moreover, the Ratio in the test on Nakaseomyces glabratus [5] and with Candida tropicalis [7] was 8 - 64 each time.

Consider `Fc1cc2nc(SCc3ccc(-c4ccccc4-c4nnnn4C(c4ccccc4)(c4ccccc4)c4ccccc4)cc3)[nH]c2cc1-n1ccnc1`, for which the MIC in the test with Nakaseomyces glabratus [13], in the test with Candida albicans [14], with Pichia kudriavzevii [15] and in the test with Candida tropicalis [16] was 8 to 16 µg/mL (≈ 11.3 to 22.5 µM) each time.

For `c1ccc(Cn2nnnc2SCCCSc2nnnn2-c2ccccc2)cc1`, the MIC (in the test with Aspergillus flavus [10]; with Talaromyces marneffei; in test [11]; in the test with Aspergillus fumigatus [12]) was 6.25 µg/mL (≈ 15.2 µM) throughout.

`Clc1ccc(COC(Cn2ccnc2)c2ccc(Cl)cc2Cl)c(Cl)c1` (stereo not drawn) [MICONAZOLE]: the MIC in the test on Nakaseomyces glabratus [3] was found to be 400 µg/mL (≈ 961 µM); in the test with Candida albicans [23] it was 25 µg/mL (≈ 60.1 µM); with Candida albicans [6] it was 12.5 µg/mL (≈ 30 µM); in the test on Aspergillus niger [24], 12.5 µg/mL (≈ 30 µM).

For `CCC(C)n1ncn(-c2ccc(N3CCN(c4ccc(OCC5COC(Cn6cncn6)(c6ccc(Cl)cc6Cl)O5)cc4)CC3)cc2)c1=O` (stereo not drawn) [ITRACONAZOLE], the MIC in the test with Aspergillus flavus [10] is 6.25 µg/mL (≈ 8.86 µM); with Candida parapsilosis, 0.007 to 0.5 µg/mL (≈ 0.00992 to 0.709 µM); in the test with Talaromyces marneffei it was 6.25 µg/mL (≈ 8.86 µM); with Candida albicans [1] it was 0.007 to 0.5 µg/mL (≈ 0.00992 to 0.709 µM); with Aspergillus niger [25], 0.007 to 0.5 µg/mL (≈ 0.00992 to 0.709 µM); in the test on Pichia kudriavzevii [26], 0.007 to 0.5 µg/mL (≈ 0.00992 to 0.709 µM). Besides, the MIC with Nakaseomyces glabratus [27] was 0.007 to 0.5 µg/mL (≈ 0.00992 to 0.709 µM); with Candida tropicalis [28], 0.007 to 0.5 µg/mL (≈ 0.00992 to 0.709 µM); in [11] it was 6.25 µg/mL (≈ 8.86 µM); in the test with Aspergillus fumigatus [12], 6.25 µg/mL (≈ 8.86 µM); with Cryptococcus neoformans, 0.007 to 0.5 µg/mL (≈ 0.00992 to 0.709 µM).

(Values after ChEMBL document CHEMBL4393657, “Tetrazole hybrids and their antifungal activities” (2019).)
